A word on the Ki: it is the equilibrium dissociation constant of an inhibitor or competing ligand from its target. A low value points to tighter binding.

Experiment [1] deals with Rattus norvegicus. As to the kind of experiment: Antihypertensive activity measured as change in heart rate was measured for a 10-h after 10 mg/kg oral dose. The format is functional.
Experiment [2] addresses Adenosine receptors; A1 & A2 (Rattus norvegicus) (UniProt P29276+P25099+P30543). As to the kind of experiment: Ratio of Ki values of A1 adenosine and A2 adenosine receptor. The format is protein assay.
Experiment [3] deals with Adenosine A2 receptor (Rattus norvegicus, UniProt P29276+P30543). The experiment is described as follows: Binding affinity towards adenosine A2 receptor. Type of experiment: protein assay.
Experiment [4] deals with Rattus norvegicus. The experiment is described as follows: Antihypertensive activity measured as change in blood pressure for a 10-h after 10 mg/kg oral dose in rat. The format is functional.
Experiment [5] has as its target T1, Adenosine receptor A1 (Rattus norvegicus, UniProt P25099).
T1 sequence (P25099 whole entry): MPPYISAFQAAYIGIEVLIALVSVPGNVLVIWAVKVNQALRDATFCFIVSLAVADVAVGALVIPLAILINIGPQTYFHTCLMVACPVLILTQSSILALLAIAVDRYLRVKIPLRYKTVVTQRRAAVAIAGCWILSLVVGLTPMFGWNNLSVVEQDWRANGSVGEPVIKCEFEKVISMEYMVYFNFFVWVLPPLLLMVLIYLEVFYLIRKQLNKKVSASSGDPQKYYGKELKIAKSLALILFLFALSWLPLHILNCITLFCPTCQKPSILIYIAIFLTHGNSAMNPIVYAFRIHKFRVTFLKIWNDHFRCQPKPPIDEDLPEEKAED
The experiment is described as follows: Binding affinity towards adenosine A1 receptor.

Turning to `OC[C@H]1O[C@@H](n2cnc3c(NC4CCc5cc6c(cc54)OCO6)ncnc32)[C@H](O)[C@@H]1O` (stereo partly drawn), the Change in experiment [1] and in experiment [4] was -21% in each case. In addition, in experiment [2], the Ratio came to 89.9. The Ki in experiment [3] was found to be 4539 nM; in experiment [5], 50.5 nM.
Take `COc1cccc2c1CCCC2Nc1ncnc2c1ncn2[C@@H]1O[C@H](CO)[C@@H](O)[C@H]1O` (stereo partly drawn): the Change is listed as -31% in experiment [1] and -52% in experiment [4]. For the same molecule, the Ratio in experiment [2] turned out to be 9.2. Moreover, the inhibitory constant (Ki) in experiment [3] stood at 218 nM; in experiment [5] it was 23.7 nM.
`OC[C@H]1O[C@@H](n2cnc3c(NC4CCCc5ccc(O)cc54)ncnc32)[C@H](O)[C@@H]1O` (stereo partly drawn): the Change in experiment [1] was under 10%; in experiment [4], -17%. In addition, the Ratio in experiment [2] was 4. Also, the figures for the Ki in experiment [3] and in experiment [5] were 160 nM and 40.1 nM, respectively.
For `OC[C@H]1O[C@@H](n2cnc3c(NC4CCCCc5ccccc54)ncnc32)[C@H](O)[C@@H]1O` (stereo partly drawn) the same measures were 28%, -42%, 4.27, 76.9 nM and 17.8 nM.
With `O=[N+]([O-])c1ccc2c(c1)CCC2Nc1ncnc2c1ncn2[C@@H]1O[C@H](CO)[C@@H](O)[C@H]1O` (stereo partly drawn), the figures for the Change in experiment [1] and in experiment [4] were under 10% and -14%, respectively. Moreover, the Ratio in experiment [2] came out at 87.6. Moreover, the Ki in experiment [3] was found to be 3548 nM; in experiment [5] it was 40.5 nM.
The corresponding values for `CCCOc1ccc2c(c1)CCC2Nc1ncnc2c1ncn2[C@@H]1O[C@H](CO)[C@@H](O)[C@H]1O` (stereo partly drawn) are -30%, -43%, 188, 5302 nM and 28.2 nM.
On to `OC[C@H]1O[C@@H](n2cnc3c(NCC4(O)CCCCc5ccccc54)ncnc32)[C@H](O)[C@@H]1O` (stereo partly drawn), for which the Change in experiment [1] is recorded as under 10%; in experiment [4], -14%. The Ratio in experiment [2] is 9.8. The Ki in experiment [3] is 2705 nM; in experiment [5], 275 nM.
The corresponding values for `OC[C@H]1O[C@@H](n2cnc3c(N[C@H]4CCc5ccccc54)ncnc32)[C@H](O)[C@@H]1O` are under 10%, under 10%, 74, 23000 nM and 310 nM.
For `OC[C@H]1OC(n2cnc3c(NCC4=CCc5ccccc54)ncnc32)[C@H](O)[C@@H]1O` (stereo partly drawn) the same measures were 26%, -32%, 1.36, 44.2 nM and 32.4 nM.
Turning to `OC[C@H]1O[C@@H](n2cnc3c(N[C@H]4CCCc5ccccc54)ncnc32)[C@H](O)[C@@H]1O`, the Change in experiment [1] was under 10%; in experiment [4], -28%. In addition, the Ratio in experiment [2] is 13.3. In addition, the Ki is 3989 nM in experiment [3] and 299 nM in experiment [5].
Turning to `CCOc1ccc2c(c1)C(Nc1ncnc3c1ncn3[C@@H]1O[C@H](CO)[C@@H](O)[C@H]1O)CCC2` (stereo partly drawn), the figures for the Change in experiment [1] and in experiment [4] were 32% and -39%, respectively. In addition, the Ratio in experiment [2] is 86.4. Moreover, the Ki in experiment [3] was 5929 nM; in experiment [5] it was 68.6 nM.
The corresponding values for `OC[C@H]1O[C@@H](n2cnc3c(NC4CSc5ccccc5C4)ncnc32)[C@H](O)[C@@H]1O` (stereo partly drawn) are -33%, -21%, 63.9, 229 nM and 3.6 nM.
As to `CC(C)Oc1ccc2c(c1)C(Nc1ncnc3c1ncn3[C@@H]1O[C@H](CO)[C@@H](O)[C@H]1O)CCC2` (stereo partly drawn), the Change in experiment [1] is reported as 27%; in experiment [4], -41%. The Ratio in experiment [2] came to 102. The Ki in experiment [3] is 43440 nM; in experiment [5], 425 nM.
For `COc1cc2c(cc1OC)C(Nc1ncnc3c1ncn3[C@@H]1O[C@H](CO)[C@@H](O)[C@H]1O)CC2` (stereo partly drawn) the same measures were under 10%, -19%, 26.2, 3002 nM and 115 nM.
For `OC[C@H]1O[C@@H](n2cnc3c(NC4CCCc5c(OCc6ccccc6)cccc54)ncnc32)[C@H](O)[C@@H]1O` (stereo partly drawn) the same measures were 20%, -14%, 3.7, 511 nM and 138 nM.
The corresponding values for `OC[C@H]1O[C@@H](n2cnc3c(NCC4CCCc5ccccc54)ncnc32)[C@H](O)[C@@H]1O` (stereo partly drawn) are 21%, under 10%, 5.2, 91.7 nM and 17.3 nM.
Take `COc1cc2c(cc1OC)CC(Nc1ncnc3c1ncn3[C@@H]1O[C@H](CO)[C@@H](O)[C@H]1O)C2`: the figures for the Change in experiment [1] and in experiment [4] were -33% and -17%, respectively. In experiment [2], the Ratio was determined as 278. The inhibition constant (Ki) in experiment [3] was 1383 nM; in experiment [5] it was 4.98 nM.
Take `CCCCCOc1ccc2c(c1)CCC2Nc1ncnc2c1ncn2[C@@H]1O[C@H](CO)[C@@H](O)[C@H]1O` (stereo partly drawn): the Change in experiment [1] is reported as -20%; in experiment [4], -47%. Also, the Ratio in experiment [2] was 120. The Ki worked out at 12480 nM in experiment [3] and 104 nM in experiment [5].
For `OC[C@H]1OC(n2cnc3c(NC4CCc5ccccc5C4)ncnc32)[C@H](O)[C@@H]1O` (stereo partly drawn) the same measures were -44%, -47%, 40.3, 339 nM and 8.39 nM.
Take `OC[C@H]1O[C@@H](n2cnc3c(NC4CCCc5ccccc54)ncnc32)[C@H](O)[C@@H]1O` (stereo partly drawn): the Change in experiment [1] is -24%; in experiment [4] it was -51%. Besides, the Ratio in experiment [2] was 9.5. The Ki was 321 nM in experiment [3] and 33.7 nM in experiment [5].
Regarding `OC[C@H]1O[C@@H](n2cnc3c(NC4CCc5ccccc54)ncnc32)[C@H](O)[C@@H]1O` (stereo partly drawn), the Change in experiment [1] was under 10%; in experiment [4], -22%. Besides, the Ratio in experiment [2] was determined as 24.5. For the same molecule, the figures for the Ki in experiment [3] and in experiment [5] were 1120 nM and 45.8 nM, respectively.
In the case of `OC[C@H]1O[C@@H](n2cnc3c(N[C@@H]4CCCc5ccccc54)ncnc32)[C@H](O)[C@@H]1O`, the Change is listed as -30% in experiment [1] and -57% in experiment [4]. The Ratio in experiment [2] turned out to be 7.1. Further, the Ki in experiment [3] was 163 nM; in experiment [5], 22.9 nM.
As for `COc1ccc2c(c1)C(Nc1ncnc3c1ncn3[C@@H]1O[C@H](CO)[C@@H](O)[C@H]1O)CCC2` (stereo in doubt; 31), the Change is -40% in experiment [1] (10 mg/kg) and -56% in experiment [4] (10 mg/kg). For the same molecule, the Ki in experiment [3] was 619 nM; in experiment [5] it was 22.9 nM.
The corresponding values for `COc1ccc2c(c1)CCC2Nc1ncnc2c1ncn2[C@@H]1O[C@H](CO)[C@@H](O)[C@H]1O` (single isomer, unassigned; isomer A) are under 10%, under 10%, 28260 nM and 236 nM.

(Values after ChEMBL document CHEMBL1125617, “N6-substituted adenosine receptor agonists: potential antihypertensive agents” (J Med Chem, 1991).)
